Assays:
[1] = target: T1, Alpha-2A adrenergic receptor (Homo sapiens, UniProt P08913); format: cell membranes, Sf9, Membrane; conditions: sf9; further: in other assays of this panel Not Active means under 50% inhibition at 10 µM
T1 sequence (P08913 whole entry): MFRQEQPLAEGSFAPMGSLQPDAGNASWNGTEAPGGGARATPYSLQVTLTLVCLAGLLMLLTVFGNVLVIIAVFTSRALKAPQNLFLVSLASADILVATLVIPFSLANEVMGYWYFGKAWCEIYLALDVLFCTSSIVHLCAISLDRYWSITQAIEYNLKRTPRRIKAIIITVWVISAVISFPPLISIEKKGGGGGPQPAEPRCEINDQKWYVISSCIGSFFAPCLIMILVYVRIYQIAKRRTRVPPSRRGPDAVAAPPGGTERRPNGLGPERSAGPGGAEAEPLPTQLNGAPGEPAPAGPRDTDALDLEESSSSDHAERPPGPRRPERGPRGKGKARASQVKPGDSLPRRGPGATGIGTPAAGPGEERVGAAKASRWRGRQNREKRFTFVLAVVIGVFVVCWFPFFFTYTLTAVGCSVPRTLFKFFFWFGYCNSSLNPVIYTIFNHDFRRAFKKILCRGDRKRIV

[2] = DRUGMATRIX: Serotonin (5-Hydroxytryptamine) 5-HT3 radioligand binding (ligand: [3H] GR-65630); format: cell membranes, Membrane; conditions: hek293; Not Active = under 50% inhibition at 10 µM
[3] = target: 5-hydroxytryptamine receptor 6 (Homo sapiens, UniProt P50406); format: cell membranes, HeLa, Membrane; conditions: hela; further: in other assays of this panel Not Active means under 50% inhibition at 10 µM
5-hydroxytryptamine receptor 6, sequence (P50406 whole entry): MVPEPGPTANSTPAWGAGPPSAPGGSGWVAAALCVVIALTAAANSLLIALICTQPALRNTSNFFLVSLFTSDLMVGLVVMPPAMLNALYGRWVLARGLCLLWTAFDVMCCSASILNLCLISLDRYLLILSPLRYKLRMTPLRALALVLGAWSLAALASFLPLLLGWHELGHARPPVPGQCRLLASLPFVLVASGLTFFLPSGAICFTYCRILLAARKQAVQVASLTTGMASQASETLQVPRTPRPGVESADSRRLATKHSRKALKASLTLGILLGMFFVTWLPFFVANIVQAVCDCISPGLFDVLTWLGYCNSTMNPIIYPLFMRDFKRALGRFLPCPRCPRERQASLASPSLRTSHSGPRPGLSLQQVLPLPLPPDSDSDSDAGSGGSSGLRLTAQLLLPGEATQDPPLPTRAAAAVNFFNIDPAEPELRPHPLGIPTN

[4] = DRUGMATRIX: Calcium Channel Type L, Phenylalkylamine radioligand binding (ligand: [3H] (-)-Desmethoxyverapamil (D-888)); format: cell membranes, Rattus norvegicus, Wistar, Brain, Membrane; conditions: Not Active = under 50% inhibition at 10 µM
[5] = target: C-C chemokine receptor type 5 (Homo sapiens, UniProt P51681); format: cell membranes, Membrane; conditions: hek293; further: in other assays of this panel Not Active means under 50% inhibition at 10 µM
C-C chemokine receptor type 5, sequence (P51681 whole entry): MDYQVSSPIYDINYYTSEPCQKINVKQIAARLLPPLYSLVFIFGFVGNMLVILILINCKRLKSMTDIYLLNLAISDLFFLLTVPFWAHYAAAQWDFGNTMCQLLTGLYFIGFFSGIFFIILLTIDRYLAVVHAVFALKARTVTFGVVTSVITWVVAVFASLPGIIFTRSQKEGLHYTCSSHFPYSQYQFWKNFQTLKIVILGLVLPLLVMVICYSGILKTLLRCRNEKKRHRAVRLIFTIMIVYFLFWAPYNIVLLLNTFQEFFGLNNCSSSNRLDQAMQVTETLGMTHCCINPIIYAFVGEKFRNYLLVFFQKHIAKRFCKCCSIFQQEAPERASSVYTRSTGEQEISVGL

[6] = target: T2, C-X-C chemokine receptor type 1 (Homo sapiens, UniProt P25024); further: in other assays of this panel Not Active means under 50% inhibition at 10 µM
T2 sequence (P25024 whole entry): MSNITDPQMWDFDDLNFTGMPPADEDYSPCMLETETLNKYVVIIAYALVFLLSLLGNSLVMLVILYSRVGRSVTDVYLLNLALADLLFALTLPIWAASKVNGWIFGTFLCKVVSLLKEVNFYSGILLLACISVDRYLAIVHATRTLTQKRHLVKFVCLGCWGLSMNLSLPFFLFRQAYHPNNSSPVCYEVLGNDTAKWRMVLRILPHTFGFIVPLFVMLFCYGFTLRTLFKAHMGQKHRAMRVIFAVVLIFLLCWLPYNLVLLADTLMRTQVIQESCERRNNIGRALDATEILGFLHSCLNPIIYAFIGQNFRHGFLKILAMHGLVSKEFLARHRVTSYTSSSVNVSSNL

[7] = target: T3, Polyunsaturated fatty acid lipoxygenase ALOX15 (Oryctolagus cuniculus, UniProt P12530); assay: biochemical; format: tissue-based, Reticulocytes; conditions: reticulocytes
T3 sequence (P12530 whole entry): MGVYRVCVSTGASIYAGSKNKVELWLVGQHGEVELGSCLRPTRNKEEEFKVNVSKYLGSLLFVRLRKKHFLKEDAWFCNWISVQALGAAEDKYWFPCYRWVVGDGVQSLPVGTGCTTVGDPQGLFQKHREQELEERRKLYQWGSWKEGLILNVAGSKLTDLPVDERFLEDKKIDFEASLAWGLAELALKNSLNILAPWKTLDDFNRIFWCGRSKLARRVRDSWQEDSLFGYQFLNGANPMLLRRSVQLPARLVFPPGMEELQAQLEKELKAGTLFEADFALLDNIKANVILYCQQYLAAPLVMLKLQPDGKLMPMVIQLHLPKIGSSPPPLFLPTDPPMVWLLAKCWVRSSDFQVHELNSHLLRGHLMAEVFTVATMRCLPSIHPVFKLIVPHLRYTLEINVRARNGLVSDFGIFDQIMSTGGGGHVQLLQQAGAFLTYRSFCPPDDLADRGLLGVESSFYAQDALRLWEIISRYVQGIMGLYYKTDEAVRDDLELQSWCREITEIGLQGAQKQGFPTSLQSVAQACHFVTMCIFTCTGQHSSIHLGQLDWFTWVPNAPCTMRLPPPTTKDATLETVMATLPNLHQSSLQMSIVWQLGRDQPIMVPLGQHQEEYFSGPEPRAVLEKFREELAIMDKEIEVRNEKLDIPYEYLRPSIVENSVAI

[8] = target: Melanocortin receptor 3 (Homo sapiens, UniProt P41968); format: cell membranes, Membrane; conditions: hek293; further: in other assays of this panel Not Active means under 50% inhibition at 10 µM
Melanocortin receptor 3, sequence (P41968 whole entry): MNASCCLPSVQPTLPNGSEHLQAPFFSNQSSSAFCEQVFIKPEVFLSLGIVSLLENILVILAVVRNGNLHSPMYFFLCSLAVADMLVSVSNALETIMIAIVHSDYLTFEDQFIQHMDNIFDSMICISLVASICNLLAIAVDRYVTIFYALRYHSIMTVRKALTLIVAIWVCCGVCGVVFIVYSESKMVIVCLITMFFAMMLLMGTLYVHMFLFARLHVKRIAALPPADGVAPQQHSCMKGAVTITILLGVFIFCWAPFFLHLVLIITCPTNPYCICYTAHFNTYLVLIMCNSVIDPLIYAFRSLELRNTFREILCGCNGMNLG

[9] = target: Melanocortin receptor 5 (Homo sapiens, UniProt P33032); format: cell membranes, HEK293, Membrane; conditions: hek293; further: in other assays of this panel Not Active means under 50% inhibition at 10 µM
Melanocortin receptor 5, sequence (P33032 whole entry): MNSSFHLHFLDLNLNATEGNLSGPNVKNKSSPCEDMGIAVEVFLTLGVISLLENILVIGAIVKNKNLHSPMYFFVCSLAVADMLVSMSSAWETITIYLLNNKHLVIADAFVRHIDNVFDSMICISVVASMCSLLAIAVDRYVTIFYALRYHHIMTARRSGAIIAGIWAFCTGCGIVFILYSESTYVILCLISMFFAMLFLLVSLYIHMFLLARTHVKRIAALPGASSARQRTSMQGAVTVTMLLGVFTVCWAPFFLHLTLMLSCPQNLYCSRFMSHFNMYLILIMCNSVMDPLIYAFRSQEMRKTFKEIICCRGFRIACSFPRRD

[10] = DRUGMATRIX: Phorbol Ester radioligand binding (ligand: [3H] PDBu); format: cell membranes, Mus musculus, ICR, Brain, Membrane; conditions: Not Active = under 50% inhibition at 10 µM
[11] = target: Protein phosphatase 3 catalytic subunit alpha (Homo sapiens, UniProt Q08209); set-up: species or system Escherichia coli
[12] = target: Tyrosine-protein kinase Lck (Homo sapiens, UniProt P06239); assay: DRUGMATRIX: Protein Tyrosine Kinase, LCK enzyme inhibition (substrate: Poly(Glu:Tyr)); format: cell-based, Insect cells; conditions: insect cells; Not Active = under 50% inhibition at 10 µM
Tyrosine-protein kinase Lck, sequence (P06239 whole entry): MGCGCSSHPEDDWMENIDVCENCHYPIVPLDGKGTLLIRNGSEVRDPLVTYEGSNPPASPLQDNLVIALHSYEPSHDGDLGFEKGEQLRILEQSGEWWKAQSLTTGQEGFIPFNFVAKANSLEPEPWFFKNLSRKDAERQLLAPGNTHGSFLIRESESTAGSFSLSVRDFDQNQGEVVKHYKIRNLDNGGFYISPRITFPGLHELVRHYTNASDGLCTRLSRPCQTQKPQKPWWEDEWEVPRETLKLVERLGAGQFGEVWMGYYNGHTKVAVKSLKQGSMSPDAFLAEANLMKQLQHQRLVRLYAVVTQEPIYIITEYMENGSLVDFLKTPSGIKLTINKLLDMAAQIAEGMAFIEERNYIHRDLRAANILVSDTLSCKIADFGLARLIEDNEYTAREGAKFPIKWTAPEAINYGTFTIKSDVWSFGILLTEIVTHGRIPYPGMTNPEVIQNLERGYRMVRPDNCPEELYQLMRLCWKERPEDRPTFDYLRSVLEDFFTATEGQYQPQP

[13] = target: Cytochrome P450 2C9 (Homo sapiens, UniProt P11712); conditions: bti-tn-5b1-4; further: in other assays of this panel Not Active means under 50% inhibition at 10 µM
Cytochrome P450 2C9, sequence (P11712 whole entry): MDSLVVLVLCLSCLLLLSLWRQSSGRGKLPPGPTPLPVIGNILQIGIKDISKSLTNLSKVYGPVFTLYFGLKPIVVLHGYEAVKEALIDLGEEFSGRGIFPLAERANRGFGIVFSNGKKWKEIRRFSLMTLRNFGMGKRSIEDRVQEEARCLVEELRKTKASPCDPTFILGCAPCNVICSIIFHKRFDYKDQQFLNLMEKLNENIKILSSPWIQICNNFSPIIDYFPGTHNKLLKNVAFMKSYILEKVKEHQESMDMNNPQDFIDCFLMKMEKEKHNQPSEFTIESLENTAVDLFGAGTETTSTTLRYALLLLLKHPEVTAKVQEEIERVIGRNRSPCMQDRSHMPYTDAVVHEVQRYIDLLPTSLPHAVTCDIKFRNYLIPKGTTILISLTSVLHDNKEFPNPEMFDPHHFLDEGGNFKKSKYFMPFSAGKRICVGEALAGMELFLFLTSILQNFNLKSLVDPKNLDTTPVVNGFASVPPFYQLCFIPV

CC(C)NC[C@H](O)COc1cccc2[nH]ccc12
Not Active: IC50 [1] | IC50 [2] | Ki [2] | IC50 [3] | IC50 [4] | Ki [4] | IC50 [5] | IC50 [6] | IC50 [7] | IC50 [8] | IC50 [9] | IC50 [10] | Ki [10] | IC50 [11] | IC50 [12]

c1ccc2c(c1)cc1ccc3cccc4ccc2c1c34
Not Active: IC50 [1] | IC50 [2] | Ki [2] | IC50 [3] | IC50 [4] | Ki [4] | IC50 [5] | IC50 [6] | IC50 [7] | IC50 [8] | IC50 [9] | IC50 [10] | Ki [10] | IC50 [11] | IC50 [12] | IC50 [13] | Ki [13]

CC(C)n1c(/C=C/C(O)CC(O)CC(=O)O)c(-c2ccc(F)cc2)c2ccccc21 (configuration not stated) [FLUVASTATIN]
Not Active: IC50 [1] | IC50 [2] | Ki [2] | IC50 [3] | IC50 [4] | Ki [4] | IC50 [5] | IC50 [6] | IC50 [7] | IC50 [8] | IC50 [9] | IC50 [10] | Ki [10] | IC50 [11] | IC50 [12]

O=P1(NCCCl)OCCCN1CCCl (configuration not stated) [IFOSFAMIDE]
Not Active: IC50 [1] | IC50 [2] | Ki [2] | IC50 [3] | IC50 [4] | Ki [4] | IC50 [5] | IC50 [6] | IC50 [7] | IC50 [8] | IC50 [9] | IC50 [10] | Ki [10] | IC50 [11] | IC50 [12]

Oc1cccc2cccnc12 [OXYQUINOLINE]
Not Active: IC50 [1] | IC50 [2] | Ki [2] | IC50 [3] | IC50 [4] | Ki [4] | IC50 [5] | IC50 [6] | IC50 [7] | IC50 [8] | IC50 [9] | IC50 [10] | Ki [10] | IC50 [11] | IC50 [12]

From ChEMBL document CHEMBL1909046, “DrugMatrix in vitro pharmacology data”
